This is an account of results in publication PMC5451472, “Novel Locally Active Estrogens Accelerate Cutaneous Wound Healing-Part 2” (Scientific Reports, 2017).

Data set [1] concerns the target T1, ERs (Homo sapiens, UniProt P03372).
T1 construct: endogenous in cells; host or cells: MCF-7, clone ERE-Luc B17 (only the luciferase reporter is transfected)
T1 sequence (P03372 1-595): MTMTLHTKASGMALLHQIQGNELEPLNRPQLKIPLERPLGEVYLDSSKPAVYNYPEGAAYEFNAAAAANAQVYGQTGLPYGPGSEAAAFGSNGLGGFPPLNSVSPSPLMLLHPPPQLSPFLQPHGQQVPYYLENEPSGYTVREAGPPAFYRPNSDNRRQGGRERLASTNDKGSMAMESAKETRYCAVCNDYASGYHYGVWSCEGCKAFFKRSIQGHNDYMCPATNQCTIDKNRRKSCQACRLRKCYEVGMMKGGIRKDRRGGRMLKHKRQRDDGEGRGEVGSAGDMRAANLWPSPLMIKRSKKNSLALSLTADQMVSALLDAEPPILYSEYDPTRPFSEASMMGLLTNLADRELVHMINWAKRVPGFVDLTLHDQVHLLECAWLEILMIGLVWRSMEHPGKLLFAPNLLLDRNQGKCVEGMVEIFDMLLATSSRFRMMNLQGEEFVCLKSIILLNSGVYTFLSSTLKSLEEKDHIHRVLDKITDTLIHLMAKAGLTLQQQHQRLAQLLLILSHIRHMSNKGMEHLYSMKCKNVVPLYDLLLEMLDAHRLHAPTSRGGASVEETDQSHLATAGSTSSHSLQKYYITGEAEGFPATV
As to the kind of experiment: ER transactivation assay in ERE-Luc B17 cells (luciferase reporter). It is filed as cell-based. Conditions: for EC50: ERE-Luc B17 cells (MCF-7 clone), 24 h, luciferase activity, sigmoidal dose-response, read-out: EC50 (transactivation potency); for fold induction at 10 µM / activity on ERs: ERE-Luc B17 cells; for fold induction at 10 µM: 10^-5 M of compound respect to vehicle. As for the experimental part:
The ability of the novel compounds to transcriptionally activate ERs was tested in ERE-Luc B 17 cells, a clone of the breast cancer cell line MCF-7 stably transfected with a reporter constituted by the luciferase gene driven by an estrogen-regulated synthetic promoter previously generated and tested in our laboratories.
Cells were split twice a week by seeding 2 × 10^6 cells in 100 mm diameter Petri (Corning) dishes.
After 24 h cells were rinsed once with PBS before preparing the protein extract for the determination of luciferase content. Each experiment was carried out in duplicate.
Luciferase enzymatic activity was measured in cells or selected tissue homogenates by a luminometer (Glomax™96 microplate luminometer; Promega) using Promega standard luciferin (Beetle Luciferin Potassium Salt) and expressed as Relative Light Units over 10 sec/μg protein (RLU/μg protein). Proteins concentrations were measured by Bradford.
Analysis of transactivation data and calculation of EC50 values were performed by means of sigmoidal dose-response (variable slope) using PRISM5 software (GraphPad Software Inc.).
On the technique in general: In a reporter assay the amount or activity of a reporter protein is the signal.

In data set [2] the test system is ER transcriptional activity. As to the kind of experiment: In vivo BLI time course in wounded ovariectomized ERE-Luc mice, compounds s.c. around the wound. Also noted: species or system mouse. How it is done: To study the estrogenic and healing properties of the two compounds, we generated a wound in the ERE-Luc mouse model and tested the activity of the two compounds administered s.c. in the area surrounding the wound as described in the methodology section.
Each group was composed of 4 ERE-Luc females’ mice ovariectomized 2 weeks’ prior the experiment to avoid any interference due to endogenous estrogens. Photon emission was measured in the living animals three times: at 0, 3 and 6 h after s.c. injection.
(§1) ERE-Luc and MITO-Luc mice were ovariectomized at two months of age; the experiment was done 2 weeks after surgery to allow the animals to recover and to decrease the levels of circulating estrogens. The animals were fed ad libitum with a special estrogen free diet (AIN 93 M, Mucedola) (Ciana et al. Endocrinology 2005) and housed in individually ventilated plastic cages within a temperature range of 22–25 °C, relative humidity of 50% ± 10% and under an automatic cycle of 12 h light/dark (lights on at 07:00 am). All animal experimentation was carried out in accordance with the ARRIVE and European Guidelines for Animal Care. All animal experiments were approved by the Italian Ministry of Research and University and controlled by a Departmental panel of experts. For the correct dosage of the compounds, the body weight of the animals (on empty stomach, fasted for at least 12–14 hours) was determined immediately before the treatment.
(§2) Ovariectomy was carried out as previously described. Wound healing was done after shaving by VEET depilatory cream a day before the treatment. The 1 cm full-thickness incisional wound was made through the skin and panniculus carnosus muscle of ovariectomized MITO-luc using a surgical scalpel (blade n°10, carbon steel, Swann-Morton Ltd). Round full-thickness wounds were done by cutting out a section of full-thickness skin (around 9 mm in diameter) using fine scissors on the dorsal skin of the isoflurane-anesthetized animal. For in vivo treatment the compounds were administered onto the subcutaneous area surrounding the wound by multiple subcutaneous injection, immediately after the generation of the wound.
For the semi-quantitative analysis of in vivo photon emission, animals were injected i.p. with 80 mg/kg of luciferin (Beetle Luciferin Potassium Salt; Promega, Madison, WI, USA) 15 min prior the imaging session. For the imaging, mice were anaesthetized using isofluorane (Isofluorane-Vet; Merial, Lyon, France) and kept under anesthesia during the 5 minutes of the session carried out with a CCD camera: both ventral and dorsal acquisition (Xenogen IVIS Lumina System; Caliper, PerkinElmer company). Photon emission in selected body areas was measured using the Living Image Software (Caliper, PerkinElmer company). The analysis was done in ventral view: whole body, thymus, hepatic area, abdomen, limbs, vagina and in dorsal view in wound area and expressed as photon/second/cm2/steradiant (p/s/cm2/sr).

On the set-up of data set [3]: method as in PMID 19718805. Particulars: cited from earlier work.
Data set [4] concerns MITO-Luc mice. As to the kind of experiment: Granulation tissue histoscore of round full-thickness wound at day 10. It is filed as in vivo, mouse. Conditions: 20 µg/kg s.c., day 10, round wound, scale 1-3 (vehicle 0.3). As for the experimental part:
The measure of photon emission from the wound area was done for several days after the wounding. 3 days after treatment the bioluminescent signal is highest (Fig. 10 Panel a).
as §2
At the time of euthanasia, the wounds with surrounding healthy tissue were excised, distended on a strip of hard paper and fixed in 10% buffered formalin (pH = 6). […] For histopathological examination 4 µm sections were routinely stained with Hematoxylin-Eosin (HE) and evaluated under a light microscope. The degree of re-epithelialization, the type and amount of granulation tissue and inflammation, which are the main features of wound healing, were scored separately. […]

Data set [5] deals with MITO-Luc mice. As to the kind of experiment: Wound area measurement in MITO-Luc mice. It is filed as in vivo, mouse. Particulars: 20 µg/kg s.c., 72 hours after treatment (vehicle 50%). How it is done:
To investigate to which extent the increased proliferation observed after the pharmacological treatments was functional to the healing process, we measured the size of the wound (Fig. 9a).
as §2

Data set [6] has as its system MITO-Luc mice. As to the kind of experiment: Macrophage count (Iba1 immunohistochemistry) around the wound site. The data set is classed as in vivo, mouse. Conditions: 20 µg/kg s.c., 72 hours after treatment. As for the experimental part: To better understand whether the healing effect of 1e could be attributed to its anti-inflammatory action, at the end of in vivo imaging (72 hours after treatments) the tissue surrounding the wound was dissected and subjected immunohistochemical analysis using the pan macrophage marker Iba1. […] This observation confirmed that the estrogenic compounds were able to regulate the immune response at local level.
In particular, the criteria for the assignation of granulations value are: 1 = wound bed partially covered with granulation tissue; 2 = thin granulation over the whole wound bed; 3 = thick granulation over the whole wound bed. Evaluation of macrophages was done through a specific antibody and digital image analysis: 4 µm sections from each wound healing sample were immunostained with primary rabbit […] antibody against Iba1 antigen (Wako; #019-19741) to assess the number of macrophages.
The number of positive cells were counted using the ImageJ analysis program (http://rsb.info.nih.gov/ij/) in 400x microscopic fields selected at the periphery of the wound area.

Data set [7] concerns MITO-Luc mice (reporter of mitosis). Description: Proliferation in the wound area, in vivo BLI of MITO-Luc mice. Also noted: species or system mouse.
Excerpt: Wound healing is a dynamic process consisting of four continuous, overlapping, and precisely programmed phases: hemostasis, inflammation, proliferation and tissue growth (proliferation) and remodeling (maturation). The healing effect of estrogens may be exerted at several levels, certainly the ability of the hormone to accelerate macrophage polarization towards the M2-reparative polarization stage plays a relevant role, however estrogens may also facilitate local cell proliferation and the formation of the granulation tissue, epithelialization, and wound contraction.
The experiments were done with the 1e compound as completely deprived of any activity on the uterus (Fig. 6). […] Photon emission was measured in the wound area at the following time: 0, 24, 48 and 72 hours post-treatment.
as §1
Ovariectomy was carried out as previously described. Wound healing was done after shaving by VEET depilatory cream a day before the treatment. The 1 cm full-thickness incisional wound was made through the skin and panniculus carnosus muscle of ovariectomized MITO-luc using a surgical scalpel (blade n°10, carbon steel, Swann-Morton Ltd). Round full-thickness wounds were done by cutting out a section of full-thickness skin (around 9 mm in diameter) using fine scissors on the dorsal skin of the isoflurane-anesthetized animal. […]
For the semi-quantitative analysis of in vivo photon emission, animals were injected i.p. with 80 mg/kg of luciferin (Beetle Luciferin Potassium Salt; Promega, Madison, WI, USA) 15 min prior the imaging session. […] Photon emission in selected body areas was measured using the Living Image Software (Caliper, PerkinElmer company). The analysis was done in ventral view: whole body, thymus, hepatic area, abdomen, limbs, vagina and in dorsal view in wound area and expressed as photon/second/cm2/steradiant (p/s/cm2/sr).

For data set [8], the system named is ERE-Luc mice. As to the kind of experiment: Uterus weight of ERE-Luc mice. The data set is classed as in vivo, mouse. Particulars: 20 µg/kg s.c., 6 h after treatment. From the text: The final study aiming at investigating the systemic effect of the NCE was done by measuring the uterus weight of all treated animal as the golden standard for the quantitative measure of estrogenic compounds.

Regarding `COC(=O)CCC#C[C@]1(O)CC[C@H]2[C@@H]3CCc4cc(O)ccc4[C@H]3CC[C@@]21C` [1a, 3,17β-Hydroxy-17α-(4′carbomethoxy-1′-butyn-1′-yl)estra-1,3,5-(10)-triene], in data set [1], the EC50 (in general, the midpoint of the concentration-response curve) was found to be 920 nM and the fold induction (usually the ratio of treated to control signal) at 10 µM was 4.3.
Consider `CCOC(=O)CCC#C[C@]1(O)CC[C@H]2[C@@H]3CCc4cc(O)ccc4[C@H]3CC[C@@]21C` [1b, 3,17β-Hydroxy-17α-(4′carbethoxy-1′-butyn-1′-yl)estra-1,3,5-(10)-triene], for which the “activity on ERs” value in data set [1] is on record as “did not show any activity”.
For `CCCOC(=O)CCC#C[C@]1(O)CC[C@H]2[C@@H]3CCc4cc(O)ccc4[C@H]3CC[C@@]21C` [1c, 3,17β-Hydroxy-17α-(4′carbopropoxy-1′-butyn-1′-yl)estra-1,3,5-(10)-triene], in data set [1], the concentration giving a half-maximal response (EC50) is 2300 nM and the fold induction at 10 µM was found to be 2.6.
Turning to `CC(C)OC(=O)CCC#C[C@]1(O)CC[C@H]2[C@@H]3CCc4cc(O)ccc4[C@H]3CC[C@@]21C` [1d, 3,17β-Hydroxy-17α-(4′carbo-iso-propoxy-1′-butyn-1′-yl)estra-1,3,5-(10)-triene], the fold induction at 10 µM in data set [1] turned out to be 5.
As to `CCCCCOC(=O)CCC#C[C@]1(O)CC[C@H]2[C@@H]3CCc4cc(O)ccc4[C@H]3CC[C@@]21C` [1f], the “photon emission in body areas (whole body, thymus, hepatic area, abdomen, limbs, vagina)” value in data set [2] (200 µg/kg s.c. around wound, 3 or 6 h, ovx mice) is “did not observe increased photon emission in any of the body areas”. The “increase of photon emission in the wound area with respect to time 0” value in data set [2] (200 µg/kg s.c., 6 hours, trend) was 20%.
In the case of `COC(=O)CCCC#C[C@]1(O)CC[C@H]2[C@@H]3CCc4cc(O)ccc4[C@H]3CC[C@@]21C` [1g, 3,17β-Hydroxy-17α-(5′carbomethoxy-1′-butyn-1′-yl)estra-1,3,5-(10)-triene], in data set [1], the EC50 stood at 130 nM and the fold induction at 10 µM was 2.5.
Consider `CCOC(=O)CCCC#C[C@]1(O)CC[C@H]2[C@@H]3CCc4cc(O)ccc4[C@H]3CC[C@@]21C` [1h], for which, in data set [1], the “activity on ERs” value is on record as “did not show any activity”.
Consider `CCCCC(=O)OCCC#C[C@]1(O)CC[C@H]2[C@@H]3CCc4cc(O)ccc4[C@H]3CC[C@@]21C` [2e], for which the “in vivo healing and systemic activity” value in data set [3] was “substantially accelerated healing without systemic activity”.
With `C[C@]12CC[C@@H]3c4ccc(O)cc4CC[C@H]3[C@@H]1CC[C@@]2(O)C#CCCCO` [6a], the “activity on ERs” value in data set [1] is “did not show any activity”.
Turning to `C[C@]12CC[C@@H]3c4ccc(O)cc4CC[C@H]3[C@@H]1CC[C@@H]2O` [17β-estradiol, reference compound], the “Score of granulation tissue (fibrosis), histoscore mean” value in data set [4] is 2. The compound also displayed a wound area reduction in data set [5] of 60%. Moreover, the “number of macrophages (Iba1 positive) in the wound area lower than in controls” value in data set [6] amounted to 44%. Further, the “increase of photon emission from wound” value in data set [7] (20 µg/kg s.c. around wound, 72 h versus time 0, ovx MITO-Luc) was 78%. The “photon emission from the wound area” value in data set [7] (20 µg/kg s.c., 48 hours after administration) is “significantly increased”. For the same compound, in data set [2] (20 µg/kg s.c. around wound, ovx mice), the “luciferase activity in whole body and body areas” value is “induced a significant increase”. For the same compound, in data set [2] (20 µg/kg s.c., 6 hours), the “increase of photon emission in the wound area with respect to vehicle-treated mice” value worked out at 40%. In addition, the “uterus weight higher than average weight of controls” value in data set [8] worked out at 35%. The same compound gave an average uterus weight in data set [8] (n = 4) of 22.8 mg.
